Data taken from PubChem BioAssay AID2060610 (Molecular Pharmacology Branch, DTP, NCI, 2025).
Several values for one entry are separate records, joined by “and”; a condition that tells them apart may be missing. Equal entries are not always repeated.

Test system: 616215-338-R-J1-PDC complex spheroids, viability % test/control
Assay: Anticancer human tumor 616215-338-R-J1-PDC patient-derived colon adenocarcinoma cell line growth inhibition [CLK]
Conditions: for viability, T/C: stronger effect = lower value
In short: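 Multi-cell-type spheroids combined patient-derived tumor cells with HUVEC endothelial cells and human mesenchymal stem cells. Paired agents were dosed in half-log steps down from about clinical Cmax, or from 10 microM where Cmax was unknown.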
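Note: spheroids exposed to agents for 7 days.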
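Throughout, for viability, T/C: 100% = DMSO vehicle wells.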

In the case of `C=CC(=O)Nc1cc(Nc2nccc(-c3cn(C)c4ccccc34)n2)c(OC)cc1N(C)CCN(C)C` + CN1CCN(c2cc(C(=O)Nc3cc4cc(-c5cnn(C)c5)ccc4cn3)ccn2)CC1, the IC50 (curve of first compound, second compound 0.0316 µM) is reported as over 300 nM, the IC50 (curve of first compound, second compound 0.1 µM) is reported as over 300 nM and the IC50 (curve of first compound, second compound 0.316 µM) is reported as under 0.949 nM. It also gave an IC50 (curve of first compound, second compound 1 µM) of under 0.949 nM, an IC50 (curve of first compound, second compound 3.16 µM) of under 0.949 nM and an IC50 (curve of first compound, second compound 10 µM) of under 0.949 nM. It also gave a viability, T/C (second compound 0.0316 µM, first compound 0.000949 µM) of 104%, a viability, T/C (second compound 0.0316 µM, first compound 0.003 µM) of 102% and a viability, T/C (second compound 0.0316 µM, first compound 0.00949 µM) of 93.5%. It also gave a viability, T/C (second compound 0.0316 µM, first compound 0.03 µM) of 103%, a viability, T/C (second compound 0.0316 µM, first compound 0.0949 µM) of 107% and a viability, T/C (second compound 0.0316 µM, first compound 0.3 µM) of 107%. For the same compound, the viability, T/C (second compound 0.1 µM, first compound 0.000949 µM) was 125%, the viability, T/C (second compound 0.1 µM, first compound 0.003 µM) was 114% and the viability, T/C (second compound 0.1 µM, first compound 0.00949 µM) was 110%. It also gave a viability, T/C (second compound 0.1 µM, first compound 0.03 µM) of 111%, a viability, T/C (second compound 0.1 µM, first compound 0.0949 µM) of 97.3% and a viability, T/C (second compound 0.1 µM, first compound 0.3 µM) of 79.2%. The viability, T/C (second compound 0.316 µM, first compound 0.000949 µM) was 30.5%, the viability, T/C (second compound 0.316 µM, first compound 0.003 µM) was 35.5% and the viability, T/C (second compound 0.316 µM, first compound 0.00949 µM) was 37%. The viability, T/C (second compound 0.316 µM, first compound 0.03 µM) was 25.2%, the viability, T/C (second compound 0.316 µM, first compound 0.0949 µM) was 24.5% and the viability, T/C (second compound 0.316 µM, first compound 0.3 µM) was 20.4%. It also gave a viability, T/C (second compound 1 µM, first compound 0.000949 µM) of 0.17%, a viability, T/C (second compound 1 µM, first compound 0.003 µM) of 0.18% and a viability, T/C (second compound 1 µM, first compound 0.00949 µM) of 1.87%. The viability, T/C (second compound 1 µM, first compound 0.03 µM) was 0.19%, the viability, T/C (second compound 1 µM, first compound 0.0949 µM) was 0.34% and the viability, T/C (second compound 1 µM, first compound 0.3 µM) was 1.79%. For the same compound, the viability, T/C (second compound 3.16 µM, first compound 0.000949 µM) was 0.2%, the viability, T/C (second compound 3.16 µM, first compound 0.003 µM) was 0.16% and the viability, T/C (second compound 3.16 µM, first compound 0.00949 µM) was 0.17%. It also gave a viability, T/C (second compound 3.16 µM, first compound 0.03 µM) of 0.17%, a viability, T/C (second compound 3.16 µM, first compound 0.0949 µM) of 1.76% and a viability, T/C (second compound 3.16 µM, first compound 0.3 µM) of 1.73%. The viability, T/C (second compound 10 µM, first compound 0.000949 µM) was 0.28%, the viability, T/C (second compound 10 µM, first compound 0.003 µM) was 0.23% and the viability, T/C (second compound 10 µM, first compound 0.00949 µM) was 0.25%. For the same compound, the viability, T/C (second compound 10 µM, first compound 0.03 µM) was 0.24%, the viability, T/C (second compound 10 µM, first compound 0.0949 µM) was 0.22% and the viability, T/C (second compound 10 µM, first compound 0.3 µM) was 0.24%.
In the case of `Nc1ccn(C2OC(CO)C(O)C2(F)F)c(=O)n1` (stereo unspecified), the viability, T/C (compound 0.0316 µM) is reported as 13.9% and 20.9%, the viability, T/C (compound 0.1 µM) is reported as 11.6% and 15.4% and the viability, T/C (compound 0.316 µM) is reported as 9.93% and 15.4%. The viability, T/C (compound 1 µM) was 13.5% and 17%, the viability, T/C (compound 3.16 µM) was 9.75% and 16.1% and the viability, T/C (compound 10 µM) was 11.3% and 14.7%. For the same compound, the IC50 (curve of compound) was under 31.6 nM.
`C=CC(=O)N1CCN(c2nc(=O)n(-c3c(C)ccnc3C(C)C)c3nc(-c4c(O)cccc4F)c(F)cc23)C(C)C1` (stereo unspecified) was tested, and the viability, T/C (compound 0.0316 µM) was 95.4% and 104%, the viability, T/C (compound 0.1 µM) was 101% and 108% and the viability, T/C (compound 0.316 µM) was 106% and 119%. For the same compound, the viability, T/C (compound 1 µM) was 112% and 98.6%, the viability, T/C (compound 3.16 µM) was 108% and 110% and the viability, T/C (compound 10 µM) was 106% and 113%. For the same compound, the IC50 (curve of compound) was over 10000 nM.
